The source of these data is patent US11000490B2, “Stable aqueous capsaicin injectable formulations and medical uses thereof” (priority 2016, dated 2021).

A short description of series [1]: in vivo. The note with it: both sexes, New Zealand White, rabbit, rabbits, 0.3 mg trans-capsaicin as Capsaicin Formulation A, intra-articular, Day 1, combined males and females. As to the method: Animals were administered a single dose of test article (i.e., Capsaicin Formulation A, or placebo) on Day 1 via intra-articular injection into the right stifle joint. Dosing was followed by an observation period of 4 weeks. […] Prior to injection of test article, animals were sedated via gas anesthesia with sevoflurane. The gas was administered by designated technicians using a nose cone. Following anesthesia but prior to intra-articular injection, the injection site was prepared aseptically with three or more chlorhexidine scrubs, wiping with sterile water between each scrub. Animals were administered 1 mg/kg of midazolam and 0.6 mg/kg of meloxicam SR subcutaneously prior to gas anesthesia. […] The animal was monitored for pain and discomfort during recovery and was returned to its home cage after complete recovery. […] Additional pain management of animals was monitored by veterinary staff.
Assessment of toxicity was based on mortality, clinical observations (including qualitative food consumption), body weights, physical examinations, and clinical and anatomic pathology. […] Plasma samples were analyzed for capsaicin content. […] Abnormal findings or an indication of normal were recorded. Body weights were recorded twice during the pre-dose phase and on Days 1, 8, 15, and 22 of the dosing phase. […]

For series [2], the system named is New Zealand White rabbits. The note with it: single intra-articular dose as Capsaicin Formulation A.
Series [3] relates to purebred beagle dogs. The note with it: single intra-articular dose via Capsaicin Formulation A.

What is called Cmax is the peak of the concentration-time curve. Take `COc1cc(CNC(=O)CCCCC=CC(C)C)ccc1O` [trans-capsaicin, N-[(4-hydroxy-3-methoxyphenyl)methyl]-8-methylnon-6-enamide]: in series [1], the Cmax was 37.9 ng/mL. In series [1] (read-out: mean AUC0-24), the AUC(0-t) turned out to be 27.8 ng·h/mL. Besides, the “no observed adverse effect level (NOAEL)” value in series [2] was found to be 0.3 mg; in series [3], 1 mg.
